What was measured:
Format in all cases: in vivo
Phakopsora pachyrhizi = experiment: Phakopsora test (soya beans)/protective; conditions: protective spray, 100 ppm, evaluation 1 days after inoculation (so in the source)
Uromyces appendiculatus = experiment: Uromyces test (bean)/protective; conditions: protective spray, 100 ppm, evaluation 10 days after inoculation
Method: (§1) [table] To produce an appropriate active ingredient formulation, 1 part by weight of active ingredient is mixed with the specified amounts of solvent and emulsifier, and the concentrate is diluted with water to the desired concentration. To test for protective activity, young plants are sprayed with the active ingredient formulation at the stated application rate. […] The plants are then placed in a greenhouse at approx. 21° C. and a relative air humidity of approx. 90%.

Sphaerotheca fuliginea = experiment: Sphaerotheca test (cucumber)/protective; conditions: protective spray, 500 ppm, evaluation 7 days after inoculation
Method: [table] To produce an appropriate active ingredient formulation, 1 part by weight of active ingredient is mixed with the specified amounts of solvent and emulsifier, and the concentrate is diluted with water to the desired concentration. To test for protective activity, young cucumber plants are sprayed with the active ingredient formulation at the stated application rate. 1 day after the treatment, the plants are inoculated with a spore suspension of Sphaerotheca fuliginea. The plants are then placed in a greenhouse at 70% relative air humidity and a temperature of 23° C.

Venturia inaequalis = experiment: Venturia test (apple)/protective; conditions: protective spray, 100 ppm, evaluation 10 days after inoculation
Method: as §1

Leptosphaeria nodorum = Leptosphaeria nodorum test (wheat)/protective; conditions: protective spray, 500 ppm, evaluation 8 days after inoculation
Method: (§2) [table] To produce an appropriate active ingredient formulation, 1 part by weight of active ingredient is mixed with the specified amounts of solvent and emulsifier, and the concentrate is diluted with water to the desired concentration. To test for protective activity, young plants are sprayed with the active ingredient formulation at the stated application rate. After the spray coating has dried on, the plants are sprayed with spores with a spore suspension of Leptosphaeria nodorum.

Pyrenophora teres = Pyrenophora teres test (barley)/protective; conditions: protective spray, 500 ppm, evaluation 8 days after inoculation
Method: as §2, with “with” for “with spores with”, “Pyrenophora teres.” for “Leptosphaeria nodorum.”

[1] = tested on: Blumeria graminis f. sp. hordei; experiment: Blumeria graminis test (barley)/protective; conditions: protective spray, 500 ppm, evaluation 7 days after inoculation
Method: [table] To produce an appropriate active ingredient formulation, 1 part by weight of active ingredient is mixed with the specified amounts of solvent and emulsifier, and the concentrate is diluted with water to the desired concentration. To test for protective activity, young plants are sprayed with the active ingredient formulation at the stated application rate. After the spray coating has dried on, the plants are dusted with spores of Blumeria graminis f. sp. hordei.

Puccinia recondita [2] = experiment: Puccinia test (wheat)/protective; conditions: protective spray, 500 ppm, evaluation 7-9 days after inoculation
Botrytis cinerea = experiment: Botrytis test (bean)/protective; conditions: protective spray, 250 ppm, evaluation 2 days after inoculation
Method: as §2, with “2 small pieces of agar colonized by Botrytis cinerea” for “the plants”, “placed onto each leaf.” for “sprayed with spores with a spore suspension of Leptosphaeria nodorum.”

Fusarium graminearum = conditions: barley, protective spray, 500 ppm, evaluation 5 days after inoculation
Septoria tritici = Septoria tritici test (wheat)/protective; conditions: protective spray, 500 ppm, evaluation 21 days after inoculation
Pyricularia oryzae = conditions: rice, protective spray, 250 ppm, evaluation 5 days after inoculation
Fusarium culmorum = experiment: Fusarium test (wheat)/seed treatment; conditions: dose 50 g/dt (rate 100 [sic]), 14 days at 20° C., counting emerged plants
Method: The test was conducted under greenhouse conditions. Wheat seeds treated with an inventive active compound or a combination of inventive active compounds were sown in 6×6 cm vessels, into a mixture of steamed field soil and sand (1:1). The test compound(s) were dissolved in N-methyl-2-pyrrolidone and diluted to the desired concentration with water. Wheat kernels were inoculated with spores of Fusarium culmorum. The infected and ground kernels were distributed between the treated wheat seeds. The seeds were covered with a top layer of clay granules and incubated in a greenhouse at 20° C. for 14 days. Evaluation was effected by counting the plants which emerged. 0% means an efficacy which corresponds to that of the untreated control, whereas an efficacy of 100% means that all seeds have germinated. In this test, the following inventive compounds show an efficiency of 70% or higher at a dose of 50 g/dt.: […]

Rhizoctonia solani = experiment: Rhizoctonia test (cotton)/seed treatment; conditions: dose 50 g/dt (rate 100 [sic]), 7 days at 20° C., counting emerged and diseased plants
Method: (§3) The test was conducted under greenhouse conditions. Cottonseeds treated with an inventive active compound or a combination of inventive active compounds were sown in 6×6 cm vessels, into a mixture of steamed field soil and sand (1:1). The test compound(s) were dissolved in N-methyl-2-pyrrolidone and diluted to the desired concentration with water. Perlite was inoculated with spores of Rhizoctonia solani. The infected perlite was distributed between the treated cottonseeds. The seeds were covered with a top layer of clay granules and incubated in a greenhouse at 20° C. for 7 days. […] In this test, the following inventive compounds show an efficiency of 70% or higher at a dose of 50 g/dt: […]

Puccinia recondita [3] = experiment: Puccinia test (wheat)/seed treatment; conditions: dose 50 g/dt (rate 100 [sic]), inoculated 14 days after sowing, evaluated 9 days later, infected leaf area
Method: The test was conducted under greenhouse conditions. Wheat seeds treated with an inventive active compound or a combination of inventive active compounds were sown in 6×6 cm vessels, into a mixture of steamed field soil and sand (1:1). The test compound(s) were dissolved in N-methyl-2-pyrrolidone and diluted to the desired concentration with water. The wheat grains treated were sown and placed in a greenhouse at 10° C. 14 days after sowing, the plants were inoculated with a spore suspension of Puccinia recondita. The plants were incubated at 20° C. for a further 9 days. […] In this test, the following inventive compounds show an efficiency of 70% or higher at a dose of 50 g/dt: […]

Cochliobolus miyabeanus = experiment: Cochliobolus test (rice)/protective; conditions: protective spray, 250 ppm, evaluation 4 days after inoculation
Microdochium nivale = experiment: Microdochium test (wheat)/seed treatment; conditions: dose 50 g/dt (rate 100 [sic]), 21 days at 10° C., counting emerged plants
Method: The test was conducted under greenhouse conditions. Wheat seeds treated with an inventive active compound or a combination of inventive active compounds were sown in 6×6 cm vessels, into a mixture of steamed field soil and sand (1:1). The test compound(s) were dissolved in N-methyl-2-pyrrolidone and diluted to the desired concentration with water. Wheat kernels were inoculated with spores of Microdochium nivale. The infected and ground kernels were distributed between the treated wheat seeds. The seeds were covered with a top layer of steamed field soil and sand (1:1) and incubated in a greenhouse at 10° C. for 21 days. […] In this test, the following inventive compounds show an efficiency of 70% or higher at a dose of 50 g/dt.

Leptosphaeria maculans = experiment: Leptosphaeria test (oilseed rape)/seed treatment; conditions: dose 50 g/dt (rate 100 [sic]), 14 days at 10° C. and 7 days at 18° C., counting emerged plants
Method: as §3, with “Cottonseeds” left out, “Leptosphaeria maculans.” for “Rhizoctonia solani.”, “[…].” for “cottonseeds.”, “steamed field soil and sand (1:1)” for “clay granules”, “10° C. for 14 days and at 18°” for “20°”, “g/dt.:” for “g/dt:”

Compound	Efficacy (%) (Phakopsora pachyrhizi)	Efficacy (%) (Uromyces appendiculatus)	Efficacy (%) (Sphaerotheca fuliginea)	Efficacy (%) (Venturia inaequalis)	Efficacy (%) (Leptosphaeria nodorum)	Efficacy (%) (Pyrenophora teres)	Efficacy (%) [1]	Efficacy (%) (Puccinia recondita [2])	Efficacy (%) (Botrytis cinerea)	Efficacy (%) (Fusarium graminearum)	Efficacy (%) (Septoria tritici)	Efficacy (%) (Pyricularia oryzae)	Efficacy (%) (Fusarium culmorum)	Efficacy (%) (Rhizoctonia solani)	Efficacy (%) (Puccinia recondita [3])	efficacy (Cochliobolus miyabeanus)	Efficacy (%) (Microdochium nivale)	Efficacy (%) (Leptosphaeria maculans)
CC1COC(Cn2ncnc2I)(c2ccc(Oc3ccc(Cl)cc3)cc2Cl)O1 (mixture of isomers) [Compound 8]	98%	100%	100%	100%	94%	88%	100%	100%	–	–	–	–	–	–	–	–	–	–
Fc1ccc(C2(Cn3ncnc3I)OC2c2ccccc2Cl)cc1 (stereo not shown) [Compound 1]	–	97%	100%	97%	100%	78%	100%	100%	73%	75%	100%	–	–	–	–	–	–	–
CC(C)(C)C(O)(CCc1ccc(Cl)cc1)Cn1ncnc1I (stereo not shown) [Compound 2]	–	100%	100%	100%	100%	94%	100%	100%	90%	100%	–	–	–	–	–	–	–	–
OC(Cc1ccccc1Cl)(Cn1ncnc1I)C1(Cl)CC1 (stereo not shown) [Compound 3]	98%	100%	100%	100%	100%	100%	100%	100%	100%	100%	88%	94%	100%	100%	100%	≥ 98%	100%	100%
OC(Cc1ccc(F)cc1)(Cn1ncnc1I)C1(Cl)CC1 (stereo not shown) [Compound 4]	–	100%	100%	100%	93%	100%	100%	100%	89%	100%	100%	≥ 80%	–	–	–	≥ 80%	–	–
OC(Cn1ncnc1I)(c1ccc(Br)cc1)C1(Oc2ccc(F)cc2)CC1 (stereo not shown) [Compound 6]	–	–	100%	–	–	–	–	100%	–	–	–	–	–	–	–	–	–	–
OC(Cn1ncnc1I)(c1ccc(Cl)cc1)C1(Oc2ccccc2F)CC1 (stereo not shown) [Compound 7]	98%	100%	100%	100%	–	–	–	100%	–	–	–	–	–	–	–	–	–	–
OC(Cn1ncnc1I)(c1ccc(Br)cc1)C1(Oc2ccccc2)CC1 (stereo not shown) [Compound 9]	–	100%	100%	100%	–	–	–	100%	–	–	–	–	–	–	–	–	–	–
OC(Cn1ncnc1I)(c1ccc(F)cc1F)C1(Oc2ccc(F)cc2)CC1 (stereo not shown) [Compound 10]	98%	100%	100%	100%	–	–	–	100%	–	–	–	97%	–	–	–	–	–	–
OC(Cn1ncnc1I)(c1ccc(F)cc1F)C1(Oc2ccccc2Cl)CC1 (stereo not shown) [Compound 11]	–	–	100%	–	–	–	–	94%	–	–	–	93%	–	–	–	–	–	–
OC(Cc1ccccc1Cl)(Cn1ncnc1I)C1(F)CC1 (stereo not shown) [Compound 13]	–	100%	100%	99%	86%	100%	100%	–	–	100%	100%	–	–	–	–	–	–	–
Fc1cccc(C2(Cn3ncnc3I)OC2c2ccccc2Cl)c1 (stereo not shown) [Compound 16]	–	–	100%	–	–	–	–	90%	–	–	–	–	–	–	–	–	–	–
CC(C1CC1)C(O)(Cn1ncnc1I)c1ccc(Cl)cc1 (stereo not shown) [Compound 17]	–	–	95%	–	–	–	–	89%	–	–	–	–	–	–	–	–	–	–
CC(C)(C)C(O)(COc1ccc(Cl)cc1)Cn1ncnc1I (stereo not shown) [Compound 18]	–	100%	100%	100%	100%	93%	100%	100%	–	–	100%	–	–	–	–	–	–	–
